Experimental data reported in ChEMBL document CHEMBL3856210, “Discovery of in vitro antitubercular agents through in silico ligand-based approaches” (Eur J Med Chem, 2016).
Values after ≈ are worked out from the molar mass of the structure shown.

assay: Antitubercular activity against Mycobacterium tuberculosis H37Ra ATCC 25177 after 21 days by agar dilution method; type: functional; conditions: ATCC 25177, 504 h

Row | Structure (SMILES) | MIC [µg/mL]
1 | CC1=NN(c2ccc(Cl)cc2)C(=O)/C1=C\N1CCNCC1C(=O)c1ccco1 (stereo unspecified) | 32 (≈ 80.2 µM)
2 | Cc1c(-c2cccc(Cl)c2)nn2c(=O)cc(CCCN3CCOCC3)[nH]c12 | 32 (≈ 82.7 µM)
3 | O=C(CSc1nc2cc(Cl)ccc2s1)c1ccc(Cl)cc1 | 32 (≈ 90.3 µM)
4 | CSc1ccc(-n2c(-c3ccc(C)cc3)cc(CN3CCSCC3)c2C)cc1 | 1 (≈ 2.45 µM)
5 | COCc1nn2c(=O)cc(CCc3c(C)n[nH]c3C)[nH]c2c1-c1ccc(Cl)cc1 | 16 (≈ 38.8 µM)
6 | O=C(O[C@H](Cn1ccnc1)c1ccc(F)cc1)N1CCN(c2ccc(Cl)c(Cl)c2)CC1 | 16 (≈ 34.5 µM)
7 | CC1=NN(c2ccc(Cl)cc2)C(=O)/C1=C(/c1ccc(Cl)cc1)N(C)C | 16 (≈ 42.7 µM)
8 | Cc1ccc(-n2c(C)cc(/C=N\OCc3ccccc3)c2C)cc1 | > 100
9 | CC1=NN(c2ccc(Cl)cc2)C(=O)/C1=C(/c1ccc(Cl)cc1)N1CCC(C)CC1 | 64 (≈ 149 µM)
10 | Cc1nn(C(C)CNC(=O)C2(c3ccc(Cl)cc3)CCOCC2)c(C)c1C (stereo unspecified) | 64 (≈ 164 µM)
11 | O=C(OC(Cn1ccnc1)c1ccc(Cl)cc1)N1CCN(c2ccc(Cl)c(Cl)c2)CC1 (racemic) | 4 (≈ 8.34 µM)
12 | CCCOc1ccc2c(c1)sc1ncc(NC(=O)c3ccc(Cl)cc3)c(=O)n12 | 32 (≈ 77.3 µM)
13 | CC1=NN(c2ccccc2)C(=O)/C1=C(/c1ccc(Cl)cc1)N1CCSCC1 | 8 (≈ 20.1 µM)
14 | CC1=NN(c2ccccc2)C(=O)/C1=C(/c1ccc(Cl)cc1)N(C)C | 32 (≈ 94.2 µM)
15 | Cc1ccccc1C(=O)c1c(C)nn(-c2ccccc2)c1O | 50 (≈ 171 µM)
16 | Cc1nn2c(=O)cc(Cc3ccsc3)[nH]c2c1-c1ccc(Cl)cc1 | 32 (≈ 89.9 µM)
17 | O=C(O[C@H](Cn1ccnc1)c1ccc(Cl)cc1)c1cccc(C(F)(F)F)c1 | 16 (≈ 40.5 µM)
18 | O=C(O[C@H](Cn1ccnc1)c1ccc([N+](=O)[O-])cc1)N1CCN(c2ccc(Cl)c(Cl)c2)CC1 | 16 (≈ 32.6 µM)
19 | CC1=NN(c2ccc(Cl)cc2)C(=O)/C1=C\N1CCN(CCO)CC1 | 64 (≈ 183 µM)
20 | CC1=NN(c2ccc(Cl)cc2)C(=O)/C1=C(/c1ccc(Cl)cc1)N1CCN(C)CC1 | 4 (≈ 9.32 µM)
21 | Cc1nn(-c2ccccc2)c(O)c1C(=O)c1cccs1 | 50 (≈ 176 µM)
22 | COc1ccc(-c2cnn3c(=O)c4c([nH]c23)CCCC4)cc1OC | 32 (≈ 98.4 µM)

Row | Structure (SMILES) | MIC [µg/mL]
23 | Clc1ccc(C2=CSC3=NN=C(SCc4ccccn4)C23)cc1 (stereo unspecified) | 64 (≈ 179 µM)
24 | COc1ccc(-n2c(-c3ccc(Br)cc3)cc3c2CC(C)(C)CC3=O)c(OC)c1 | 64 (≈ 141 µM)
25 | C=C(C)Cn1c(S)nnc1CCn1c2ccc(Cl)cc2c2cc(Cl)ccc21 | 32 (≈ 76.7 µM)
26 | Cc1nn(-c2ccccc2)c(O)c1C(=O)c1cccnc1 | > 100
27 | Cc1c(C(=O)c2ccc(Cl)cc2)c(=O)n(-c2ccc(Cl)cc2)n1Cc1ccc(F)cc1 | 32 (≈ 70.3 µM)
28 | Cc1c(C(=O)c2ccc(Cl)cc2)c(=O)n(-c2ccccc2)n1Cc1ccc([N+](=O)[O-])cc1 | > 32
29 | CC(C)c1ccc(NC(=O)O[C@H](Cn2ccnc2)c2ccc(F)cc2)cc1 | 16 (≈ 43.5 µM)
30 | COc1ccc(-n2c(-c3ccc(C)cc3)cc(CN3CCSCC3)c2C)cc1 | 1 (≈ 2.55 µM)
31 | O=C(NCCCn1ccnc1)O[C@H](Cn1ccnc1)c1ccc(F)cc1 | 32 (≈ 89.5 µM)
32 | O=C(O[C@H](Cn1ccnc1)c1ccc(Cl)cc1Cl)N1CCN(c2ccc(Cl)c(Cl)c2)CC1 | 8 (≈ 15.6 µM)
33 | Cc1cc(/C=N\OCc2ccccc2)c(C)n1-c1ccc(F)cc1 | 25 (≈ 77.5 µM)
34 | CCN(Cc1cc2cc(C)c(C)cc2[nH]c1=O)c1ccc(OC)cc1C | > 64
35 | Cc1[nH]n(-c2ccc(F)cc2)c(=O)c1C(=O)c1ccc(Cl)cc1 | 12.5 (≈ 37.8 µM)
36 | CC1=NN(c2ccccc2)C(=O)/C1=C(/c1ccc(Cl)cc1)N1CCN(C)CC1 | 8 (≈ 20.3 µM)
37 | O=C(c1ccc(Cl)cc1)c1c(C(F)(F)F)[nH]n(-c2ccc(Cl)cc2)c1=O | > 64
38 | CCC/N=C(\c1ccc(Cl)cc1)c1c(C)nn(-c2ccc(Cl)cc2)c1O | > 100
39 | O=C1NN(c2ccc(Cl)cc2)C(=O)/C1=C/c1ccc(Cl)cc1Cl | 32 (≈ 87 µM)
40 | CC(C)c1[nH]n(-c2ccc(Cl)cc2)c(=O)c1C(=O)c1ccc(Cl)cc1 | 32 (≈ 85.3 µM)
41 | COc1ccc(-n2c(SC)nnc2-c2ccc(Cl)cc2)c(OC)c1 | 32 (≈ 88.4 µM)
42 | Cc1cc(/C=N\OCc2ccc(Cl)cc2)c(C)n1-c1ccc(F)cc1 | 50 (≈ 140 µM)
43 | CCc1c(CN2CCSCC2)cc(-c2ccccc2F)n1-c1ccccc1F | 4 (≈ 10 µM)
44 | O=C(Cc1noc(-c2ccncc2)n1)Nc1cc(Cl)cc(Cl)c1 | 32 (≈ 91.6 µM)

Row | Structure (SMILES) | MIC [µg/mL]
45 | CCc1c(CN2CCN(C)CC2)cc(-c2ccc(Cl)cc2)n1-c1ccc(Cl)cc1 | 2 (≈ 4.67 µM)
46 | O=C1C/C(=N\c2ccc(Cl)cc2)SC1Cc1ccc(Cl)cc1 (stereo unspecified) | 32 (≈ 91.4 µM)
47 | Cc1[nH]n(-c2ccc(Cl)cc2)c(=O)c1C(=O)c1ccc(Cl)cc1 | 6.25 (≈ 18 µM)
48 | O=C(C1=C(O)C(=O)N(c2ccccc2)C1c1ccccc1F)c1ccc(Cl)cc1 (stereo unspecified) | 32 (≈ 78.5 µM)
49 | Cc1cc(/C=N\OCc2cccc(F)c2)c(C)n1-c1ccc(F)cc1 | > 100
50 | O=C(OC(Cc1ccccc1)c1ccc(Cl)cc1)N1CCN(c2ccc(Cl)c(Cl)c2)CC1 (racemic) | 64 (≈ 131 µM)
51 | O=C(O[C@H](Cn1ccnc1)c1ccc(Cl)cc1)N1CCN(c2ccc(Cl)cc2)CC1 | 16 (≈ 35.9 µM)
52 | Cc1nn2c(=O)c3c([nH]c2c1-c1ccc(Cl)cc1)CCC3 | 8 (≈ 26.7 µM)
53 | Cc1cccc(-c2nn3c(=O)cc(CCc4c(C)n[nH]c4C)[nH]c3c2C)c1 | 64 (≈ 177 µM)
54 | O=C(O[C@H](Cn1ccnc1)c1ccc(F)cc1)N1CCN(c2ccc(Cl)cc2)CC1 | 16 (≈ 37.3 µM)
55 | Fc1ccc([C@H](c2cn(-c3ccccc3)nn2)n2ccnc2)cc1 | 32 (≈ 100 µM)
56 | Cc1c(C(=O)c2ccc(Cl)cc2)c(=O)n(-c2ccccc2)n1Cc1ccc(F)cc1 | 32 (≈ 76 µM)
57 | Cc1nn(-c2ccc(Cl)cc2)c(O)c1/C(=N/C1CC1)c1ccc(Cl)cc1 | > 100
58 | Cc1nn(C(=O)c2cccc([N+](=O)[O-])c2)c(C)c1Sc1ccc(Cl)cc1 | 32 (≈ 82.5 µM)
59 | CC1=NN(c2ccc(Cl)cc2)C(=O)/C1=C(/c1ccc(Cl)cc1)N1CCCCC1 | > 64
60 | Cc1nn(-c2ccc(Cl)cc2)c(O)c1C(=O)c1ccccc1 | 25 (≈ 79.9 µM)
61 | COCc1cc(=O)n2nc(C)c(-c3ccccc3OC)c2[nH]1 | 32 (≈ 107 µM)
62 | CCc1c(CN2CCSCC2)cc(-c2ccccc2)n1-c1ccc(F)cc1 | 2 (≈ 5.26 µM)
63 | CCc1ccc(-c2cc(CN3CCSCC3)c(C)n2-c2ccc(OC)cc2)cc1 | 0.5 (≈ 1.23 µM)
64 | CC1=NN(c2ccc(Cl)cc2)C(=O)/C1=C\Nc1ccccc1 | 64 (≈ 205 µM)
65 | O=S(=O)(Nc1nc2ccccc2[nH]1)c1ccc(Cl)cc1 | 32 (≈ 104 µM)
66 | CC(C)c1[nH]n(-c2ccccc2)c(=O)c1C(=O)c1ccc(Cl)cc1 | 64 (≈ 188 µM)

Row | Structure (SMILES) | MIC [µg/mL]
67 | CCOc1ccc(NC(=O)C(Cc2ccccc2)N2C(=O)c3ccccc3C2=O)cc1 (stereo unspecified) | 32 (≈ 77.2 µM)
68 | COC(=O)C1=C(C)N(Cc2ccc(C)cc2)C(=O)/C1=C\c1ccc(C)cc1OC | 32 (≈ 81.7 µM)
69 | Cc1nn(-c2ccccc2)c(O)c1/C(=N/OCc1ccccc1)c1ccc(Cl)cc1 | > 100
70 | Cc1cc(/C=N\OCc2ccc([N+](=O)[O-])cc2)c(C)n1-c1ccc(F)cc1 | > 100
71 | CN(C(=O)c1cccc(Cl)c1)c1nc(-c2ccccc2)cs1 | 64 (≈ 195 µM)
72 | Clc1cccc(CSc2nnc(-c3ccc(Cl)cc3Cl)o2)c1 | 32 (≈ 86.1 µM)
73 | CC1=NN(c2ccc(Cl)cc2)C(=O)/C1=C\N1CCN(c2ccccc2)CC1 | 64 (≈ 168 µM)
74 | O=C(O[C@H](Cn1ccnc1)c1ccc(F)cc1)N1CCN(C(=O)c2ccco2)CC1 | 64 (≈ 155 µM)
75 | CC1=NN(c2ccc(Cl)cc2)C(=O)/C1=C(/c1ccc(Cl)cc1)N1CCOCC1 | 4 (≈ 9.61 µM)
76 | Cc1nn(-c2ccccc2)c(O)c1C(=O)c1ccc([N+](=O)[O-])cc1 | > 100
77 | O=C(O[C@H](Cn1ccnc1)c1cccc2ccccc12)N1CCN(c2ccc(Cl)c(Cl)c2)CC1 | 16 (≈ 32.3 µM)
78 | CCOC(=O)c1cnc2c(Cl)c(Cl)ccc2c1NCc1cccnc1 | 32 (≈ 85.1 µM)
79 | O=C(O[C@H](Cn1ccnc1)c1ccc(Cl)cc1)N1CCN(C(=O)c2ccco2)CC1 | 64 (≈ 149 µM)
80 | COc1ccc(CO/N=C\c2cc(C)n(-c3ccc(F)cc3)c2C)cc1 | > 100
81 | Cc1nn(-c2ccccc2)c(O)c1C(=O)c1ccc2ccccc2c1 | 25 (≈ 76.1 µM)
82 | Cc1ccc(-n2nc(C)c(C(=O)c3ccc(Cl)cc3)c2O)cc1 | 16 (≈ 49 µM)
83 | CCCc1cc(=O)n2nc(C)c(-c3ccc(Cl)cc3)c2[nH]1 | 8 (≈ 26.5 µM)
84 | C=CCN1CC(c2nc3ccccc3n2Cc2cccc(Cl)c2)CC1=O (stereo unspecified) | 32 (≈ 87.5 µM)
85 | Fc1ccc([C@H](c2cn(Cc3ccccc3)nn2)n2ccnc2)cc1 | 64 (≈ 192 µM)
86 | Cc1nn(-c2ccccc2)c(O)c1C(=O)c1ccc(Cl)cc1 | 6.25 (≈ 20 µM)
87 | Cc1c(C(=O)c2ccc(Cl)cc2)c(=O)n(-c2ccc(Cl)cc2)n1Cc1ccccc1 | 16 (≈ 36.6 µM)
88 | Cc1ccc(C2NC(=O)NC(O)(C(F)(F)F)C2C(=O)c2ccc(Cl)cc2)cc1 (stereo unspecified) | 32 (≈ 77.5 µM)

Row | Structure (SMILES) | MIC [µg/mL]
89 | CC1=NN(c2ccccc2)C(=O)/C1=C(/c1ccc(Cl)cc1)N1CCOCC1 | 16 (≈ 41.9 µM)
90 | O=C(COc1ccccc1)OC(Cn1ccnc1)c1ccc(Cl)cc1 (racemic) | 64 (≈ 179 µM)
91 | Cc1[nH]n(-c2ccccc2)c(=O)c1C(=O)c1cccc(F)c1 | 25 (≈ 84.4 µM)
92 | Cc1c(C(=O)c2ccc(Cl)cc2)c(=O)n(-c2ccc(Cl)cc2)n1Cc1ccc([N+](=O)[O-])cc1 | 32 (≈ 66.3 µM)
93 | C/C(=N\OC(=O)COc1ccc(Cl)cc1Cl)c1ccc(Br)cc1 | 32 (≈ 76.7 µM)
94 | CCc1c(CN2CCSCC2)cc(-c2ccc(F)cc2)n1-c1ccccc1F | 2 (≈ 5.02 µM)
95 | O=C(OC(Cn1cccc1)c1ccc(Cl)cc1)N1CCN(c2ccc(Cl)c(Cl)c2)CC1 (racemic) | 64 (≈ 134 µM)
96 | O=C(O[C@H](Cn1ccnc1)c1ccc(F)cc1)N1CCN(c2ccc([N+](=O)[O-])cc2)CC1 | 32 (≈ 72.8 µM)
97 | Cc1nn(-c2ccccc2)c(O)c1C(=O)/C=C/c1ccccc1 | 50 (≈ 164 µM)
98 | O=C1S/C(=C\c2ccc(-c3cccc(Cl)c3Cl)o2)C(=O)N1c1ccc(Cl)cc1 | 64 (≈ 142 µM)
99 | CC1=NN(c2ccc(Cl)cc2)C(=O)/C1=C\N1CCOCC1 | 64 (≈ 209 µM)
100 | Cc1nn(-c2ccccc2)c(O)c1/C(=N/Cc1ccccc1)c1ccc(Cl)cc1 | > 100
101 | Cc1nn(-c2ccc(F)cc2)c(OC(=O)c2ccccc2)c1C(=O)c1ccccc1 | 25 (≈ 62.4 µM)
102 | CC1=NN(c2ccc(Cl)cc2)C(=O)/C1=C\N(C)C | > 64
103 | Cc1nn(-c2ccc(Cl)cc2)c(O)c1/C(=N/OCc1ccccc1)c1ccc(Cl)cc1 | > 100
104 | CSc1ccc(-c2cc(CN3CCSCC3)c(C)n2-c2ccc(F)cc2)cc1 | < 0.125
105 | Cc1ccc(C(=O)Oc2c(C(=O)c3ccc(C)cc3)c(C)nn2-c2ccccc2)cc1 | > 100
106 | CCCc1cc(=O)n2nc(C)c(-c3ccc(OC)c(OC)c3)c2[nH]1 | 64 (≈ 195 µM)
